In patent US12636299B2, “Terpenoid derivatives, pharmaceutical preparations containing these derivatives and their use in neuroprotection” (UNIVERZITA PALACKEHO V OLOMOUCI, priority 2020, dated 2026):

How the values were obtained:
[1] = test system: human neuroblastoma cell line SH-SY5Y; test: Viability of differentiated SH-SY5Y in salsolinol-induced model of PD (Calcein AM); format: cell-based; conditions: for Neuroprotective effect (% of control): difference between 800 μM SAL and co-treatment group means, 24 hours; for effect on SH-SY5Y viability in salsolinol model, in words: 800 μM salsolinol, comparison with NAC
Experimental: Similarly, as in previous “Safety test”, the SH-SY5Y cells were seeded at density 7000 cells/well. After 48 h differentiation, old 1% DMEM/F12 media was replaced by fresh media containing 800 μM salsolinol (SAL) and tested compounds in 0.1, 1 and 10 μM concentrations. N-acetylcystein were chosen as positive control. After 24 hours, the cell viability was measured by Calcein AM viability assay. The values in Table 2 show % of viability of all tested compounds relative to control. The control (medium with DMSO, <0.1% (v/v)) was postulated as 100% viability (see the first line of the table), while the SAL exposure lead to decrease of viability to 65.4±0.97%.

[2] = test system: SH-SY5Y human neuroblastoma cell line; test: Cytotoxicity, Calcein AM viability assay on neuron-like SH-SY5Y cells; format: cell-based; conditions: 24 h
Experimental: The SH-SY5Y human neuroblastoma cell line obtained from ECACC (The European Collection of Authenticated Cell Cultures) was cultivated in Dulbecco's modified Eagle's Medium and Ham's F12 Nutrient Mixture (DMEM:F-12, 1:1), supplemented with 10% fetal bovine serum (FBS) and 1% penicillin and streptomycin at 37° C. in a humidified atmosphere 5% CO2, 95% humidity in passage limit up to ECACC+20. The assay was performed in 96-well microplate with 7000 SH-SY5Y cells per well. After 48 h, old DMEM/F12 media was removed by fresh media containing tested compounds at 0.1, 1 and 10 μM concentrations for 24 h. Glial cell line A-172 purchased from ATCC and grown in same conditions as SH-SY5Y cell line. A-172 cells were seeded in density 2000 cells per well and growing medium was replaced by treatment medium containing tested compounds in 0.1, 1 and 10 μM concentration; or in higher concentrations for R-LA or NAC positive controls for 48 hours. All tested compounds dissolved in DMSO were added into the medium. The maximum concentration of DMSO in media was kept below 0.1% (v/v). The cell viability was measured by Calcein AM (1 mg/ml ThermoFisher) viability assay. Solution of Calcein AM in PBS (0.75 μM) was pipetted to cells and incubated for 50 min. After that the fluorescence was measured at 488/517 nm (excitation/emission) using microplate reader Infinite M200 (TECAN). Calcein AM assay is based on the dye-intracellular-esterase cleavage of non-fluorescent dye (Calcein AM) by living cells to fluorescent dye (Calcein), while dying cells lose such ability. The values in Table 2 show the % of viability compared to control for all tested compounds. The results from DMSO control (medium with DMSO, <0.1% (v/v)) was postulated as 100% viability (see the first line of Table 2).

[3] = test system: human neuron-like SH-SY5Y cells; test: 3NPA-induced model of Huntington's disease, neuron-like SH-SY5Y cells; format: cell-based; conditions: difference to 20 mM 3NPA, 48 h
Experimental: (§1) Before application of toxin 3-nitropropionic acid (3NPA) for mimicking Huntington's disease, the 3NPA was dissolved in water and neutralized by sodium hydroxide. SH-SY5Y cells were seeded in the same density and differentiated by the procedure shown above. Astrocyte cells A-172 were also seeded as described in previous section. Both cell lines were co-treated by 3NPA (20 mM for SH-SY5Y cells, […]) and tested compounds at 0.1, 1 and 10 μM concentration for 48 h.

glial A-172 cells [4] = test: Cytotoxicity, Calcein AM viability assay on glial A-172 cells; format: cell-based, human; conditions: NAC at 1000 μM
Experimental: The assay was performed in 96-well microplate with 7000 SH-SY5Y cells per well. After 48 h, old DMEM/F12 media was removed by fresh media containing tested compounds at 0.1, 1 and 10 μM concentrations for 24 h. Glial cell line A-172 purchased from ATCC and grown in same conditions as SH-SY5Y cell line. […] All tested compounds dissolved in DMSO were added into the medium. The maximum concentration of DMSO in media was kept below 0.1% (v/v). The cell viability was measured by Calcein AM (1 mg/ml ThermoFisher) viability assay. Solution of Calcein AM in PBS (0.75 μM) was pipetted to cells and incubated for 50 min. After that the fluorescence was measured at 488/517 nm (excitation/emission) using microplate reader Infinite M200 (TECAN). Calcein AM assay is based on the dye-intracellular-esterase cleavage of non-fluorescent dye (Calcein AM) by living cells to fluorescent dye (Calcein), while dying cells lose such ability.

glial A-172 cells [5] = test: as above; format: cell-based, human; conditions: 48 hours
[6] = test system: superoxide radical formation; test: Oxidative stress (superoxide radical formation, DHE) in 3NPA-induced model on SH-SY5Y; format: cell-based, human; conditions: for Superoxide radical formation (oxidative stress) %: 20 mM 3NPA = 100%, 24 hours
Experimental: Similarly, to previous assay, cells grown on 96-multiwell plates at density 20000 cells per well underwent differentiation and treatment procedure with 3-nitropropionic acid (3NPA) in this model. After 24 hours of co-treatment with 20 mM 3NPA, superoxide radical's formation as a marker of oxidative stress was quantified by dihydroethidium according to Kim et al. (2017, J. Med. Food, 20, 140-151). Briefly, neuron-like SH-SY5Y cells were centrifuged at 500 g for 5 min and 30 s, then media were replaced by 10 μM DHE PBS solution and kept at room temperature for 30 min. After that, DHE was read at 500 nm/580 nm (excitation/emission) by Infinite M200 Pro (Tecan) microplate reader. DHE is cell permeable dye which is selective for superoxide radical detection. Overall oxidative stress achieved by 20 mM 3NPA was consider as 100% and thus the reduction in superoxide radical's formation (OS reducing effect) was determined. As shown in Table 6 and FIG. 2, 20 mM 3NPA induced 2.7-fold increase in superoxide radical's formation.

astrocyte A-172 cells = test: 3NPA-induced model of Huntington's disease, astrocyte A-172 cells; format: cell-based, human; conditions: for Astro-protective effect (% of control): difference to 10 mM 3NPA, 48 h
Experimental: as §1

caspase-3,7 activity = test: Caspase-3,7 activity in salsolinol-induced model of PD on SH-SY5Y (Ac-DEVD-AMC); format: cell-based, human; conditions: for Caspase-3,7 activity (% of 800 μM SAL control): percentages of control (800 μM SAL = 100), 24 hour co-treatment; for reduction of caspase-3,7 activity, in words: 800 μM SAL, compounds 3 and 4 at 10 μM compared with NAC; for efficacy relative to positive controls (by used concentration): caspase-3,7 activity, salsolinol model
Experimental: Similarly, as shown in previous assay, cells grew on 96 multiwell plates at density 20000 cells per well underwent differentiation and treatment procedure for salsolinol model. After 24 hour co-treatment with salsolinol, caspase-3,7 (casp-3,7) activity as marker of apoptosis was quantified by its substrate Ac-DEVD-AMC according to Carrasco et al. (2003, BioTechniques, 34, 1064-1067). In this model, overall casp-3,7 activity induced by 800 μM SAL was consider as 100% and thus the reduction in casp-3,7 was observed after treatment with the protective terpenoid derivatives. As shown in Table 4 and FIG. 2, 800 μM SAL induced 2.9-fold increase.

Row | SMILES | Neuroprotective effect (% of control) ([1]; 0.1 μM) | Neuroprotective effect (% of control) ([1]; 1 μM) | Neuroprotective effect (% of control) ([1]; 10 μM) | effect on SH-SY5Y viability in salsolinol model, in words [1] | viability, percentage of DMSO control ([2]; 0.1 μM) [%] | viability, percentage of DMSO control ([2]; 1 μM) [%] | viability, percentage of DMSO control ([2]; 10 μM) [%] | Neuro-protective effect (% of control) ([3]; 0.1 μM) | Neuro-protective effect (% of control) ([3]; 1 μM) | Neuro-protective effect (% of control) ([3]; 10 μM) | effect on viability of astrocytes, in words (glial A-172 cells [4]) | viability, percentage of DMSO control (glial A-172 cells [5]; 0.1 μM) [%] | viability, percentage of DMSO control (glial A-172 cells [5]; 1 μM) [%] | viability, percentage of DMSO control (glial A-172 cells [5]; 10 μM) [%] | Superoxide radical formation (oxidative stress) % ([6]; 0.1 μM) [%] | Superoxide radical formation (oxidative stress) % ([6]; 1 μM) [%] | Superoxide radical formation (oxidative stress) % ([6]; 10 μM) [%] | Astro-protective effect (% of control) (astrocyte A-172 cells; A-172, 0.1 μM) | Astro-protective effect (% of control) (astrocyte A-172 cells; A-172, 1 μM) | Astro-protective effect (% of control) (astrocyte A-172 cells; A-172, 10 μM) | other results
1 | C=C(C(=O)OCc1ccncc1)C1CCC2(COC(C)=O)CCC3(C)C(CCC4C5(C)CCC(OC(C)=O)C(C)(C)C5CCC43C)C12 (stereo not drawn) [Compound 3, Pyridin-4-yl-methyl 3β,28-bis(acetyloxy)lup-20(30)-en-29-oate] | N/A (N/A = no protection) | 33.10 % of control | 21.50 % of control | better effect than 1000 μM NAC | 115.8 | 145.0 | 137.4 | N/A (N/A = no protection) | 39.96 % of control | 24.13 % of control | slight decrease in percentage of living cells | 95.5 | 98.2 | 71.7 | 88.4 | 79.0 | 81.9 | N/A (N/A = no protection) | 11.98 % of control | N/A (N/A = no protection) | OS reducing effect, in words ([6]; 10 μM, comparison with 100 μM NAC): even stronger activity toward oxidative stress; protective effect on astrocytes in 3NPA model, in words (astrocyte A-172 cells; A-172 cells, comparison with R-LA): positive effect comparable to R-LA control; Caspase-3,7 activity (% of 800 μM SAL control) (caspase-3,7 activity; 1 μM): 73.7%; Caspase-3,7 activity (% of 800 μM SAL control) (caspase-3,7 activity; 10 μM): 55.6%; reduction of caspase-3,7 activity, in words (caspase-3,7 activity): comparable; efficacy relative to positive controls (by used concentration) (caspase-3,7 activity): 10 fold
2 | C=C(C(=O)OCc1cccnc1)C1CCC2(COC(C)=O)CCC3(C)C(CCC4C5(C)CCC(OC(C)=O)C(C)(C)C5CCC43C)C12 (stereo not drawn) [Compound 4, Pyridin-3-yl-methyl (3β)-3,28-bis(acetyloxy)lup-20(30)-en-29-oate] | N/A (N/A = no protection) | 33.70 % of control | 33.99 % of control | better effect than 1000 μM NAC | 99.9 | 146.1 | 142.5 | N/A (N/A = no protection) | 32.36 % of control | 28.98 % of control | slight decrease in percentage of living cells | 104.2 | 97.9 | 83.6 | 84.7 | 78.5 | 65.8 | 7.38 % of control | 3.25 % of control | N/A (N/A = no protection) | Caspase-3,7 activity (% of 800 μM SAL control) (caspase-3,7 activity; 1 μM): 67.2%; Caspase-3,7 activity (% of 800 μM SAL control) (caspase-3,7 activity; 10 μM): 46.0%; reduction of caspase-3,7 activity, in words (caspase-3,7 activity): better; efficacy relative to positive controls (by used concentration) (caspase-3,7 activity): 10 fold
